Results: patent US9688653B2, “Ethoxyphenyl thienyl compounds and methods for the treatment of bacterial infections” (Duke University, priority 2013, dated 2017)
Entries after “also recorded” stand apart in the source; their conditions may differ.

Columns and labels:
K1 capsule of UTI89 = test: Secondary assay 3: orcinol assay for released K1 capsule polysaccharide; assay type: cell-based, Escherichia coli; details: 100 μM, K1 strain UTI89
Protocol: E. Secondary Assay 3: Orcinol Secondary Screening for Inhibitors of Bacterial Capsule Biogenesis.
Purpose: This assay was performed only on the probe candidate. […] The biochemical determination of cell-surface associated capsule was performed using UTI89 or the Delta Region I and Delta Region II capsule mutant bacterial strains.
Purpose: This assay was performed only on the probe candidate. […] The biochemical determination of cell-surface associated capsule was performed using UTI89 or the delta Region I and Region II capsule mutant bacterial strains.
Assay Description: The biochemical measurement of cell-surface associated capsule was performed. UTI89 or capsule mutants were grown in culture tubes with and without the test compound (50 μM). The cultures were centrifuged, and the cell pellets were washed in PBS and resuspended in Tris buffer, pH5. […] Released polysaccharide was harvested by separation from whole bacteria by centrifugation followed by deproteination with phenol/chloroform and precipitation with ethanol. The precipitated material was subjected to acid hydrolysis (pH 2 at 80° C. for 1 hr) and incubated with orcinol, which reacts with periodic intermediates to produce a violet color quantified at OD 570 (3) Inhibitors reducing or abrogating surface encapsulation yielded low orcinol levels similar to the capsule export and synthesis mutants (Region I and II). The positive control drug C7 (100 μM final well concentration) was used in this screen.
Endpoint Read: The samples were read at ambient temperature from the bottom for absorbance at A570 in a BioTek Quantplate reader and the degree of orcinol-reactive material was determined based on the absorbance compared to a wild-type encapsulated strain (UTI89) and a standard curve using purified sialic acid.
Orcinol assay for released capsule material. Orcinol reactivity was used as a biochemical confirmation of altered extracellular capsule after compound treatment. UTI89 or an isogenic capsule mutant was grown in 100 μM of test compound or 1% DMSO. The assay was performed as previously described. The molecule C7 (100 μM final concentration) was used as a positive control. The assay was performed 3 times with replicate samples.

[1] = system: Bladder carcinoma 5637 cells; details: earlier report; cited from earlier work
UPEC K1 strain UTI80 = details: cited from earlier work
[2] = target: norepinephrine transporter (Homo sapiens, UniProt P23975); test: LeadProfilingScreen, single target; assay type: binding; details: duplicate
norepinephrine transporter, sequence (P23975 whole entry): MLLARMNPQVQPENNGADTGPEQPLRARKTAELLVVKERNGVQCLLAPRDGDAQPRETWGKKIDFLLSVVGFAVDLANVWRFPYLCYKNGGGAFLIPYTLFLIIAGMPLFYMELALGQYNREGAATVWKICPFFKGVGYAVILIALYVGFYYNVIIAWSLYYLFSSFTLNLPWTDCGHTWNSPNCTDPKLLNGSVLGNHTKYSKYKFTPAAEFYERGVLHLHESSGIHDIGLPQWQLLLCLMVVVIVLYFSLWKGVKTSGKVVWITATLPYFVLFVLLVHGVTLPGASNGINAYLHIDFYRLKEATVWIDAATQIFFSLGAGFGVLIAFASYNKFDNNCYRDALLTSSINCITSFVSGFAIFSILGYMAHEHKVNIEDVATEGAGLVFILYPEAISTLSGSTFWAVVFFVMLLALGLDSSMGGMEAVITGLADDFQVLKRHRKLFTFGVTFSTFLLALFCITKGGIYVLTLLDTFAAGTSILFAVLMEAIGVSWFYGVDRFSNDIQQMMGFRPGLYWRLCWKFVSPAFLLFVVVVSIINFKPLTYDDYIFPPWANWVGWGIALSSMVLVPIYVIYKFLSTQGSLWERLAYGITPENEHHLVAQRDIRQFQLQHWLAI
Protocol: Evaluation of off-target effects. Off target effects of lead molecules of interest were evaluated using the LeadProfilingScreen commercial assay at Eurofins Panlabs (Bothell, Wash.). Reference standards were run as an integral part of each assay to ensure the validity of the results obtained. Assay results are presented as the percent inhibition of specific binding or activity (for n=2 replicates) for the probe compound tested at a concentration of 10 μM. Details regarding the individual assays and methods are provided in Supplementary Information File 51.
DU003 & DU011 are biologically selective. DU003 and DU011 were submitted to the Eurofins Panlabs LeadProfilingScreen to assess off-target pharmacology 1421. […] In review of PubChem data, DU011 (CID23602075) is reported to have shown activity in only 21 of 467 (4.5%, as of Sep. 5, 2013) bioassays in which it was tested (assays unrelated to the current project). Per PubChem, DU003 (CID18109210) is reported to have shown activity in only 5 of 427 (1.2%, as of Sep. 5, 2013) bioassays in which it was tested (assays unrelated to the current project).

K1 antigen of UTI89 = test: K1 antigen whole-cell dot blot with anti-K1 serum; assay type: cell-based, Escherichia coli; details: 100 μM
Protocol: K1 antigen dot blot. K1 antigen was detected by dot blot assays of culture extracts probed with anti-K1 H46 serum. The assay was performed as previously described. The experiment was repeated twice with similar results, and a representative dot blot is shown.

E. coli UTI89 = test: Human serum sensitization (MTT); assay type: cell-based, Escherichia coli; details: 50 μM compound, p=0.0067 versus control
Protocol: Human serum sensitization by capsule inhibitor treatment. Overnight cultures of UTI89 were diluted 1:100 and grown with or without 50 μM compound for approximately 1.5 hrs on a shaker at 37° C. Then 25 μL of anonymous, non-identified, sterile filtered pooled human serum (purchased from Equitech Bio) was added per 100 μL of growth media. This was returned to the shaker for another 3 hrs, after which 20 μL of 5 mg/mL MTT (3-(4,5-Dimethylthiazol-2-yl)-2,5-diphenyltetrazolium bromide) was added. MTT is reduced to purple formazan by bacterial reductase enzymes, thus measuring viable bacteria. This was shaken for another 15 min at 37° C. The sample was spun to remove the growth media, followed by two washes with PBS. The formazan crystals were dissolved in 100 μL of DMSO and measured at OD570.

panel of 68 receptors = details: 10 μM, duplicate; upper bound over all targets

| SMILES | Reduction of orcinol-reactive polysaccharides on surface of bacteria (K1 capsule of UTI89) [%] | Toxicity to cultured bladder epithelial cells [1] | Concentration at which the inhibitory effect reaches saturation (UPEC K1 strain UTI80) | IC50 (UPEC K1 strain UTI80; read-out: Concentration giving approximately 50% inhibition of K1F phage lysis (IC50)) [µM] | inhibition at 10 µM [2] [%] | Whole-cell anti-K1 dot blot reactivity (K1 antigen of UTI89) | Sensitivity of UTI89 to pooled human serum (MTT) (E. coli UTI89) | Inhibition across off-target panel (panel of 68 receptors) [%] |
| --- | --- | --- | --- | --- | --- | --- | --- | --- |
| O=C(O)c1cc(-c2ccc(-c3ccccc3)cc2)nc2cc3ccccc3cc12 [C7, 2-(4-phenylphenyl)-benzo[g]quinoline-4-carboxylic acid] | ~80 | lacks obvious toxicity | approximately 25 μM | 12.5 to 25 |  |  |  |  |
| O=C(Nc1ccncc1)c1ccc2ncsc2c1 [DU003, N-pyridin-4-yl-1,3-benzothiazole-6-carboxamide] | ~80 |  |  |  | 58 | reduces K1 reactive material to levels comparable to those of genetic capsule mutants | further increased serum-mediated killing; also recorded: significantly more sensitive | < 30 |
